≈ marks a conversion by molar mass, not a printed value. Where “and” joins values, the source holds several entries; their conditions need not be identical. Identical values can stand only once. Like-named read-outs stand apart in the source and are kept apart here.
Experiments:
[1] = tested on: platelets in whole blood; experiment: Platelet function testing with the Hemostasis Mechanism Analyzer (HMA): clumping, sticking, clotting in whole blood; format: cell-based, human; conditions: for activity at 3300 µg/mL / activity at 6700 µg/mL / activity at 11700 µg/mL / activity at 23300 µg/mL / activity at 5000 µg/mL / activity at 700 µg/mL / activity at 670 µg/mL: Homo sapiens, Platelet; for activity at 700 µg/mL: Dosage (mg/ml) 0.7; for activity at 670 µg/mL: Dosage (mg/ml) 0.67
[2] = tested on: mitochondria isolated from liver of tilapia (Sarotheridon mossambica); format: biochemical
[3] = Dosage (mg/ml) 3.3, 0 dosage = 100, read-out: % clot time increase
[4] = Dosage (mg/ml) 3.3, 0 dosage = 100, read-out: % clump time increase
[5] = Dosage (mg/ml) 3.3, 0 dosage = 100, read-out: % stick time increase
[6] = Dosage (mg/ml) 6.7, 0 dosage = 100, read-out: % clot time increase
[7] = Dosage (mg/ml) 6.7, 0 dosage = 100, read-out: % clump time increase
[8] = Dosage (mg/ml) 6.7, 0 dosage = 100, read-out: % stick time increase
[9] = Dosage (mg/ml) 11.7, 0 dosage = 100, read-out: % clot time increase
[10] = Dosage (mg/ml) 11.7, 0 dosage = 100, read-out: % clump time increase
[11] = Dosage (mg/ml) 11.7, 0 dosage = 100, read-out: % stick time increase
[12] = Dosage (mg/ml) 23.3, 0 dosage = 100, read-out: % clot time increase
[13] = Dosage (mg/ml) 23.3, 0 dosage = 100, read-out: % clump time increase
[14] = Dosage (mg/ml) 23.3, 0 dosage = 100, read-out: % stick time increase
[15] = in vitro whole blood assay, clumping, sticking, clotting
[16] = Dosage (mg/ml) 5, 0 dosage = 100, read-out: % clot time increase
[17] = Dosage (mg/ml) 5, 0 dosage = 100, read-out: % clump time increase
[18] = Dosage (mg/ml) 5, 0 dosage = 100, read-out: % stick time increase
[19] = 0 dosage = 100, read-out: % clot time increase
[20] = 0 dosage = 100, read-out: % clump time increase
[21] = 0 dosage = 100, read-out: % stick time increase
[22] = read-out: % clump time increase
[23] = read-out: % stick time increase

Compound: 1H-triazole [Compound 99]
- % clot time increase [1]: 108% and 103%
- % clump time increase [1]: 103% and 99%
- % stick time increase [1]: 99% and 104%

Compound: O=C(O)CCCCC1CCSS1 (single isomer, unassigned) [Compound 90, 5-[(3R or 3S)-dithiolan-3-yl]pentanoic acid]
- IC50 (mg/ml) mitochondria inhibition [2]: 37.1 mg/mL (≈ 180 mM)
- activity at 3300 µg/mL [1, 3]: 97%
- activity at 3300 µg/mL [1, 4]: 102%
- activity at 3300 µg/mL [1, 5]: 104%
- activity at 6700 µg/mL [1, 6]: 104%
- activity at 6700 µg/mL [1, 7]: 97%
- activity at 6700 µg/mL [1, 8]: 100%
- activity at 11700 µg/mL [1, 9]: 100%
- activity at 11700 µg/mL [1, 10]: 110%
- activity at 11700 µg/mL [1, 11]: 110%
- activity at 23300 µg/mL [1, 12]: 110%
- activity at 23300 µg/mL [1, 13]: 129%
- activity at 23300 µg/mL [1, 14]: 136%
- activity in the platelet assays (active agent or inactive) [1, 15]: inactive

Compound: c1ccc(-c2cnn[nH]2)cc1 [Compound 2, 5-phenyl-1H-triazole]
- activity in the platelet assays (active agent or inactive) [1, 15]: met the criteria for active agents

Compound: Cn1cncn1 [Compound 8, 1-Methyl-1,2,4-triazole]
- activity at 3300 µg/mL [1, 3]: 104%
- activity at 3300 µg/mL [1, 4]: 105%
- activity at 3300 µg/mL [1, 5]: 98%
- activity at 5000 µg/mL [1, 16]: 105%
- activity at 5000 µg/mL [1, 17]: 121%
- activity at 5000 µg/mL [1, 18]: 118%
- activity at 6700 µg/mL [1, 6]: 105%
- activity at 6700 µg/mL [1, 7]: 130%
- activity at 6700 µg/mL [1, 8]: 121%

Compound: FC(F)(F)c1ccc(-c2nnn[nH]2)cc1 [Compound 18, 5-[4-(trifluoromethyl)phenyl]-1H-tetrazole]
- activity at 6700 µg/mL [1, 6]: 106%
- activity at 6700 µg/mL [1, 7]: 127%
- activity at 6700 µg/mL [1, 8]: 106%

Compound: OC(c1ccccc1)c1nnn[nH]1 (centres unmarked) [Compound 24, phenyl(1H-tetrazol-5-yl)methanol]
- activity at 700 µg/mL [1, 19]: 96%
- activity at 700 µg/mL [1, 20]: 109%
- activity at 700 µg/mL [1, 21]: 105%
- activity at 3300 µg/mL [1, 3]: 105%
- activity at 3300 µg/mL [1, 4]: 126%
- activity at 3300 µg/mL [1, 5]: 124%
- activity at 5000 µg/mL [1, 16]: 113%
- activity at 5000 µg/mL [1, 17]: 156%
- activity at 5000 µg/mL [1, 18]: 152%
- activity at 6700 µg/mL [1, 6]: 116%
- activity at 6700 µg/mL [1, 7]: 160%
- activity at 6700 µg/mL [1, 8]: 143%

Compound: COc1ccc(-c2nnn[nH]2)cc1 [Compound 26, 5-(4-methoxyphenyl)-1H-tetrazole]
- activity at 6700 µg/mL [1, 6]: 102%
- activity at 6700 µg/mL [1, 7]: 122%
- activity at 6700 µg/mL [1, 8]: 118%

Compound: Cn1cnnc1S [Compound 33, 4-methyl-1,2,4-triazole-3-thiol]
- activity at 5000 µg/mL [1, 16]: 100%
- activity at 5000 µg/mL [1, 17]: 100%
- activity at 5000 µg/mL [1, 18]: 119%
- activity at 6700 µg/mL [1, 6]: 108%
- activity at 6700 µg/mL [1, 7]: 115%
- activity at 6700 µg/mL [1, 8]: 123%

Compound: Cc1ncsc1CCCl [Compound 45, 5-(2-chloroethyl)-4-methyl-thiazole]
- activity at 6700 µg/mL ([1]; read-out: % clot time increase): 101%
- activity at 6700 µg/mL [1, 22]: 119%
- activity at 6700 µg/mL [1, 23]: 108%

Compound: C[N+](C)(C)[C@@H](Cc1c[nH]c(=S)[nH]1)C(=O)[O-] [Compound 50, (2S)-3-(2-thioxo-1,3-dihydroimidazol-4-yl)-2-(trimethylammonio) propanoate]
- IC50 (mg/ml) mitochondria inhibition [2]: 86 mg/mL (≈ 375 mM)
- activity in the platelet assays (active agent or inactive) [1, 15]: inactive

Compound: C[N+](C)(C)[C@H](Cc1c[nH]c(=S)[nH]1)C(=O)[O-] [Compound 51, (2R)-3-(2-thioxo-1,3-dihydroimidazol-4-yl)-2-(trimethylammonio) propanoate]
- IC50 (mg/ml) mitochondria inhibition [2]: 93.8 mg/mL (≈ 409 mM)
- activity in the platelet assays (active agent or inactive) [1, 15]: inactive

Compound: C1CCc2nnnn2CC1 [Compound 52, 6,7,8,9-tetrahydro-5H-tetrazolo[1,5-a]azepine]
- activity at 3300 µg/mL ([1]; read-out: % clot time increase): 105%
- activity at 5000 µg/mL ([1]; read-out: % clot time increase): 112%
- activity at 6700 µg/mL ([1]; read-out: % clot time increase): 117%
- activity at 3300 µg/mL [1, 22]: 115%
- activity at 5000 µg/mL [1, 22]: 143%
- activity at 6700 µg/mL [1, 22]: 130%
- activity at 3300 µg/mL [1, 23]: 120%
- activity at 5000 µg/mL [1, 23]: 138%
- activity at 6700 µg/mL [1, 23]: 131%

Compound: Cn1nnnc1S [Compound 53, 1-methyltetrazole-5-thiol]
- IC50 (mg/ml) mitochondria inhibition [2]: 27.5 mg/mL (≈ 237 mM)
- activity at 3300 µg/mL [1, 3]: 117%
- activity at 3300 µg/mL [1, 4]: 124%
- activity at 3300 µg/mL [1, 5]: 117%
- activity at 5000 µg/mL [1, 16]: 132%
- activity at 5000 µg/mL [1, 17]: 185%
- activity at 5000 µg/mL [1, 18]: 176%
- activity at 6700 µg/mL [1, 6]: 160%
- activity at 6700 µg/mL [1, 7]: 292%
- activity at 6700 µg/mL [1, 8]: 265%

Compound: Cc1ncsc1CCO [Compound 60, 2-(4-methylthiazol-5-yl)ethanol]
- activity at 700 µg/mL [1, 19]: 100%
- activity at 700 µg/mL [1, 20]: 108%
- activity at 700 µg/mL [1, 21]: 103%
- activity at 3300 µg/mL [1, 3]: 104%
- activity at 3300 µg/mL [1, 4]: 136%
- activity at 3300 µg/mL [1, 5]: 135%
- activity at 5000 µg/mL [1, 16]: 110%
- activity at 5000 µg/mL [1, 17]: 158%
- activity at 5000 µg/mL [1, 18]: 155%
- activity at 6700 µg/mL [1, 6]: 115%
- activity at 6700 µg/mL [1, 7]: 192%
- activity at 6700 µg/mL [1, 8]: 182%

Compound: COCCc1nn[nH]n1 [Compound 68, 5-(2-methoxyethyl)-2H-tetrazole]
- activity at 670 µg/mL [1, 19]: 108%
- activity at 670 µg/mL [1, 20]: 100%
- activity at 670 µg/mL [1, 21]: 110%
- activity at 3300 µg/mL [1, 3]: 107%
- activity at 3300 µg/mL [1, 4]: 100%
- activity at 3300 µg/mL [1, 5]: 114%
- activity at 6700 µg/mL [1, 6]: 129%
- activity at 6700 µg/mL [1, 7]: 186%
- activity at 6700 µg/mL [1, 8]: 175%

Compound: Cn1cc[nH]c1=S [Compound 78, 3-methyl-1H-imidazole-2-thione, reference compound]
- activity at 6700 µg/mL ([1]; read-out: % clot time increase): 110%
- activity at 11700 µg/mL ([1]; read-out: % clot time increase): 123%
- activity at 23300 µg/mL ([1]; read-out: % clot time increase): 156%
- activity at 6700 µg/mL [1, 22]: 124%
- activity at 11700 µg/mL [1, 22]: 132%
- activity at 23300 µg/mL [1, 22]: 216%
- activity at 6700 µg/mL [1, 23]: 101%
- activity at 11700 µg/mL [1, 23]: 118%
- activity at 23300 µg/mL [1, 23]: 203%
- activity in the platelet assays (active agent or inactive) [1, 15]: met the criteria for active agents

Compound: COc1cc(/C=C/C(=O)/C=C(O)/C=C/c2ccc(O)c(OC)c2)ccc1O [Compound 85, (1E,4Z,6E)-5-hydroxy-1,7-bis(4-hydroxy-3-methoxy-phenyl)hepta-1,4,6-trien-3-one]
- activity in the platelet assays (active agent or inactive) [1, 15]: none of them were active agents

Compound: C=CCSCC=C [Compound 86, 3-allylsulfanylprop-1-ene]
- activity in the platelet assays (active agent or inactive) [1, 15]: none of them were active agents

Compound: CCCCC[C@H](O)CC(=O)CCc1ccc(O)c(OC)c1 [Compound 88, (5S)-5-hydroxy-1-(4-hydroxy-3-methoxy-phenyl)decan-3-one]
- activity at 3300 µg/mL [1, 3]: 104%
- activity at 3300 µg/mL [1, 4]: 107%
- activity at 3300 µg/mL [1, 5]: 100%
- activity at 6700 µg/mL [1, 6]: 102%
- activity at 6700 µg/mL [1, 7]: 106%
- activity at 6700 µg/mL [1, 8]: 101%
- activity at 11700 µg/mL [1, 9]: 104%
- activity at 11700 µg/mL [1, 10]: 111%
- activity at 11700 µg/mL [1, 11]: 110%
- activity at 23300 µg/mL [1, 12]: 100%
- activity at 23300 µg/mL [1, 13]: 128%
- activity at 23300 µg/mL [1, 14]: 132%
- activity in the platelet assays (active agent or inactive) [1, 15]: none of them were active agents

Compound: Oc1ccc(/C=C/c2cc(O)cc(O)c2)cc1 [Compound 89, 5-[(E)-2-(4-hydroxyphenyl)vinyl] benzene-1,3-diol]
- activity in the platelet assays (active agent or inactive) [1]: none of them were active agents

Compound: N=C(N)NC(N)=S [Compound 102, carbamimidoylthiourea]
- activity in the platelet assays (active agent or inactive) [1, 15]: none of them were active agents

— patent US9918964B2, “Reducing platelet activation, aggregation and platelet-stimulated thrombosis or blood coagulation by reducing mitochondrial respiration” (priority 2010, dated 2018)
